Legend:
Assay in all cases: relative viability (nuclei count vs DMSO), 5 days (fraction); higher = more cells survive
DM3189 + Tozasertib = compound: C1CN(CCN1)C2=CC=C(C=C2)C3=CN4C(=C(C=N4)C5=CC=NC6=CC=CC=C56)N=C3 [DM3189] + Cc1cc(Nc2cc(N3CCN(C)CC3)nc(Sc3ccc(NC(=O)C4CC4)cc3)n2)n[nH]1 [Tozasertib] (partner 0.1 µM)
Procedure, shortened: (§1)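 Lung cancer cell lines were seeded in 1536-well plates and dosed by pin tool the next day, with either a single drug or a fixed anchor-drug dose combined with five library-drug doses (not always all listed) spaced in √10 steps. Five days later, one step fixed the cells and stained their nuclei (final 0.05% Triton X-100, 1% formaldehyde, 1 ug/ml Hoechst), and nuclei were counted on 4× images. Relative viability is the nuclei count in treated wells divided by the count in vehicle wells, and each value is the median of duplicate plates.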

DM3189 + Bortezomib = compound: C1CN(CCN1)C2=CC=C(C=C2)C3=CN4C(=C(C=N4)C5=CC=NC6=CC=CC=C56)N=C3 [DM3189] + CC(C)C[C@H](NC(=O)[C@H](Cc1ccccc1)NC(=O)c1cnccn1)B(O)O [Bortezomib] (partner 0.002 µM)
Procedure, shortened: as §1

DM3189 + Palbociclib = compound: C1CN(CCN1)C2=CC=C(C=C2)C3=CN4C(=C(C=N4)C5=CC=NC6=CC=CC=C56)N=C3 [DM3189] + CC(=O)c1c(C)c2cnc(Nc3ccc(N4CCNCC4)cn3)nc2n(C2CCCC2)c1=O [Palbociclib] (partner 0.5 µM)
Procedure, shortened: as §1

DM3189 + OSI-027 = compound: C1CN(CCN1)C2=CC=C(C=C2)C3=CN4C(=C(C=N4)C5=CC=NC6=CC=CC=C56)N=C3 [DM3189] + COc1cccc2cc(-c3nc([C@H]4CC[C@H](C(=O)O)CC4)n4ncnc(N)c34)[nH]c12 [OSI-027] (partner 0.5 µM)
Procedure, shortened: as §1

DM3189 + Pemetrexed = compound: C1CN(CCN1)C2=CC=C(C=C2)C3=CN4C(=C(C=N4)C5=CC=NC6=CC=CC=C56)N=C3 [DM3189] + Nc1nc2[nH]cc(CCc3ccc(C(=O)N[C@@H](CCC(=O)O)C(=O)O)cc3)c2c(=O)[nH]1 [Pemetrexed] (partner 0.2 µM)
Procedure, shortened: as §1

Cell Line	relative viability (DM3189 + Tozasertib; first compound 0.08 µM)	relative viability (DM3189 + Tozasertib; first compound 0.253 µM)	relative viability (DM3189 + Tozasertib; first compound 0.8 µM)	relative viability (DM3189 + Tozasertib; first compound 2.53 µM)	relative viability (DM3189 + Bortezomib; first compound 0.08 µM)	relative viability (DM3189 + Bortezomib; first compound 0.253 µM)	relative viability (DM3189 + Bortezomib; first compound 0.8 µM)	relative viability (DM3189 + Bortezomib; first compound 2.53 µM)	relative viability (DM3189 + Palbociclib; first compound 0.08 µM)	relative viability (DM3189 + Palbociclib; first compound 0.253 µM)	relative viability (DM3189 + Palbociclib; first compound 0.8 µM)	relative viability (DM3189 + Palbociclib; first compound 2.53 µM)	relative viability (DM3189 + OSI-027; first compound 0.08 µM)	relative viability (DM3189 + OSI-027; first compound 0.253 µM)	relative viability (DM3189 + OSI-027; first compound 0.8 µM)	relative viability (DM3189 + OSI-027; first compound 2.53 µM)	relative viability (DM3189 + Pemetrexed; first compound 0.08 µM)	relative viability (DM3189 + Pemetrexed; first compound 0.253 µM)	relative viability (DM3189 + Pemetrexed; first compound 0.8 µM)	relative viability (DM3189 + Pemetrexed; first compound 2.53 µM)
NCI-H520	0.491	0.33	0.364	0.313	0.503	0.345	0.429	0.368	0.206	0.202	0.206	0.173	0.281	0.232	0.237	0.232	0.603	0.492	0.49	0.296
NCI-H2009	0.678	0.69	0.67	0.673	1.24	1.04	0.782	0.984	0.264	0.195	0.184	0.217	0.684	0.577	0.553	0.579	1.07	0.988	0.985	1
ChaGo-K-1	0.235	0.228	0.222	0.233	1.32	0.882	1.01	0.757	0.947	0.908	0.914	0.964	0.594	0.607	0.383	0.589	0.255	0.266	0.261	0.264
HCC-15	0.246	0.44	0.35	0.375	1.11	1	0.978	0.862	0.832	0.721	0.675	0.844	0.757	0.599	0.524	0.673	0.219	0.208	0.207	0.211
NCI-H2347	0.464	0.475	0.521	0.515	1.08	0.91	0.944	1.17	0.412	0.4	0.417	0.435	0.486	0.337	0.455	0.335	0.473	0.51	0.432	0.518
NCI-H1395	0.69	0.689	0.697	0.799	–	–	–	–	0.528	0.593	–	0.605	0.709	0.572	0.54	0.6	1.13	0.786	–	0.806
NCI-H1666	0.602	0.648	0.737	0.565	0.853	0.783	0.898	0.91	0.553	0.637	0.656	–	1.01	0.941	1.1	1.01	1	0.818	0.844	–
NCI-H3122	0.38	0.35	0.333	0.382	0.979	0.983	0.973	0.982	0.2	0.178	0.154	0.162	1.16	0.916	0.909	1.04	0.203	0.197	0.184	0.159

From the supplement of paper PMC10307832
